Columns and labels:
[1] = test system: MDA-MB-435 breast cancer cells; test: Photostability: cytotoxicity of solutions kept under room light, Neutral Red assay; format: cell-based, human; conditions: EF24-GSH: 10 mM in sterile water, up to 48 hours under room light, FIG. 3; EF24: diluted aqueous solution, overnight
Method: MDA-MB-435 breast cancer cells were seeded at 2×10^4 per well in a 96-well plate with DMEM medium supplemented with 10% FBS, plus antibiotics penicillin and streptomycin. After 24 hours, cells were treated with EF24-GSH in the presence of the above growth medium. EF24-GSH solutions were made fresh at 10 mM with sterile water and placed under room light in clear Eppendorf tubes for 30 min, 24 hours and 48 hours, respectively, before adding to the cells. Cell viability was determined after 48 hours of treatment with EF24-GSH conjugate using the Neutral Red assay.

[2] = Photostability: appearance of aqueous solution under room light; format: physicochemical; conditions: EF24-GSH: after 48 hours under room light; EF24: diluted aqueous solution, overnight
[3] = background statement; cited from earlier work
tumor cell growth = conditions: background statement; cited from earlier work
[4] = test system: MDA-MB-231 human breast cancer cells; conditions: MDA-MB-231 cells, background statement; cited from earlier work
[5] = test system: DU-145 human prostate cancer cells; conditions: DU-145 cells, background statement; cited from earlier work
[6] = background statement; cited from earlier work; remark: listed apart in the source

## CC(=O)O.O=C1C(=Cc2ccccc2F)CNCC1=Cc1ccccc1F [EF24, 3,5-Bis-(2-fluorobenzylidene)-piperidin-4-one, acetic acid salt]
[1]
  cytotoxicity after exposure of the solution to room light: severely compromised
[2]
  colour of the solution under room light: turns dark overnight
[3]
  photostability: poor photostability
  water solubility: relatively insoluble in water
Tumor cell growth
  inhibition of tumor cell growth, potency compared with cisplatin: higher potency than cisplatin
[4]
  cell cycle arrest: G2/M arrest
[5]
  cell cycle arrest: G2/M arrest
[6]
  toxicity: relatively little toxicity

Source: patent US20070270464A1, “PRODRUGS OF CURCUMIN ANALOGS” (priority 2006, published 2007)
